Results taken from patent publication US20120107861A1, “METHOD OF DETERMINING RISK OF ARRHYTHMIA” (priority 2010, published 2012).
Where two headings read alike, the source gives them in different places.

How the values were obtained:
[1] = tested on: human iPSC-derived cardiomyocytes (iCells); settings: for IB20: lowest concentration producing IBR ≥0.2 (≥20% irregular beats over one minute); for amplitude of impedance: amplitude of each beat
Experimental: Cell Culture. hiPSC-derived cardiomyocytes (iCells) from Cellular Dynamics International (CDT) were thawed in Plating Media (CDI and plated as single cells onto 0.1% Gelatin (Sigma)-coated, 6-well tissue-culture plates (Corning) at a density of 2.2−2.7×10^6 cells per well. Cells were cultured for 3-5 d at 37° C., 7% CO2 prior to re-plating onto xCELLigence® 96-well cardio e-plates (ACEA/Roche Applied Sciences) or microelectrode arrays (MEAs, Multichannel Systems). The media was changed every 2 d after plating using Maintenance Media (CDI), pre-warmed to 37° C. to minimize the temperature shock on cells.
xCELLigence® cardio e-plates and MEA Re-plating. iCells cultured in 6-well plates were harvested by twice washing in dPBS (GIBCO) then lifted with 0.5% Trypsin-EDTA (GIBCO), incubated at 37° C., 7% CO2. Trypsin was quenched with Maintenance Media and cells were collectively centrifuged at 69 g for 5 minutes and resuspended in Maintenance Media to yield the target density. For cardio e-plate reseeding, cells were plated at a target density of 5×10^4 per well, estimating 80% seeding efficiency. Cardio e-plates were coated with 0.1% Gelatin for 3 h at 37° C. Background impedance measurements for cardio e-plates were made with the final volume of media equilibrated to 37° C. but without cells, immediately prior to reseeding the cells. The cells were monitored every 1 h by a 20 s sweep duration by the xCELLigence® RTCA cardio system at its maximum sampling rate (77 Hz) prior to initiating experimentation.
xCELLigence® and MEA Experimentation. Compound stocks were prepared in DMSO or dH2O at 1000 fold the highest tested concentration. For xCELLigence® experimentation, compound stocks were serially diluted in Maintenance Media in a separate 96-well tissue culture plate (Corning) at twice the target concentration. The dilution plate was incubated and equilibrated to 37° C. prior to cell exposure. […] All compounds were tested as n≧3 on multiple cardio e-plates. The xCELLigence® monitored changes to the beating for periodic 20 s sweep durations at 77 Hz.
Data Analysis. Data were first analyzed by the built-in analysis modules of xCELLigence® and MEAs systems, initial results were then exported into in-house developed Microsoft Excel templates for further semi-auto analysis. […] To calculate the “Predicted Proarrhythmic Score” (PPS), we first determined a “Irregular Beat Ratio” (IBR). The IBR was defined as the ratio of arrhythmic beat counts to the total number of beats over one minute. IBR values for each concentration at each selected time-point was averaged from 3 to 5 e-plates. The lowest concentration of drug, that generated a IBR value ≧0.2 was determined and termed “IB20.” Finally, the maximal therapeutic plasma concentration (Cmax) was divided by the IB20 to arrive at the PPS. A PPS >100 is a level of concern for drug-induced arrhythmia. […]

[2] = maximum therapeutic plasma concentration, cited from earlier work
TdP = settings: clinical; cited from earlier work
QT interval = settings: cited from earlier work
[3] = tested on: human iPSC-derived cardiomyocytes (iCells); test: Multi-electrode array (MEA) field potential recording of iPSC-derived cardiomyocytes; type: cell-based; settings: iPSC-CMs
Experimental: MEAs were prepared according to manufacturer guidelines. Briefly, microelectrodes in 6-well MEA dishes were coated with 2 μL Fibronectin (Sigma) diluted 1:20 and incubated at 37° C. for 3 h. Cells were reseeded at the target density of 3×10^4 cells in a 2 μL delivery to microelectrodes and incubated at 37° C., 7% CO2 for 3 h prior to filling each well with Maintenance Media. The media of cardio e-plates and MEAs were changed every 2 d thereafter, using Maintenance Media warmed to 37° C. Cells were cultured for 3-7 d prior to conducting an experiment on cardio e-plates or MEAs.
The wells of the MEAs had half the volume in each well replaced with fresh warm Maintenance Media, immediately prior to experimentation so as to be consistent with the media replacement for xCELLigence® experimentation. MEAs were allowed a 15 min equilibration period within the MEA recorder system (Multichannel Systems), prior to compound exposure. The temperature was maintained at 37° C. and a constant air flow of 95% O2, 5% CO2, was perfused over the MEAs. Compound additions were made in serially increasing additions, recording for 15 min at each concentration. All compounds were tested as n≧4 wells.

hERG channel = hERG channel (Homo sapiens, UniProt Q12809); settings: cited from earlier work
Sequence of hERG channel (Q12809 whole entry): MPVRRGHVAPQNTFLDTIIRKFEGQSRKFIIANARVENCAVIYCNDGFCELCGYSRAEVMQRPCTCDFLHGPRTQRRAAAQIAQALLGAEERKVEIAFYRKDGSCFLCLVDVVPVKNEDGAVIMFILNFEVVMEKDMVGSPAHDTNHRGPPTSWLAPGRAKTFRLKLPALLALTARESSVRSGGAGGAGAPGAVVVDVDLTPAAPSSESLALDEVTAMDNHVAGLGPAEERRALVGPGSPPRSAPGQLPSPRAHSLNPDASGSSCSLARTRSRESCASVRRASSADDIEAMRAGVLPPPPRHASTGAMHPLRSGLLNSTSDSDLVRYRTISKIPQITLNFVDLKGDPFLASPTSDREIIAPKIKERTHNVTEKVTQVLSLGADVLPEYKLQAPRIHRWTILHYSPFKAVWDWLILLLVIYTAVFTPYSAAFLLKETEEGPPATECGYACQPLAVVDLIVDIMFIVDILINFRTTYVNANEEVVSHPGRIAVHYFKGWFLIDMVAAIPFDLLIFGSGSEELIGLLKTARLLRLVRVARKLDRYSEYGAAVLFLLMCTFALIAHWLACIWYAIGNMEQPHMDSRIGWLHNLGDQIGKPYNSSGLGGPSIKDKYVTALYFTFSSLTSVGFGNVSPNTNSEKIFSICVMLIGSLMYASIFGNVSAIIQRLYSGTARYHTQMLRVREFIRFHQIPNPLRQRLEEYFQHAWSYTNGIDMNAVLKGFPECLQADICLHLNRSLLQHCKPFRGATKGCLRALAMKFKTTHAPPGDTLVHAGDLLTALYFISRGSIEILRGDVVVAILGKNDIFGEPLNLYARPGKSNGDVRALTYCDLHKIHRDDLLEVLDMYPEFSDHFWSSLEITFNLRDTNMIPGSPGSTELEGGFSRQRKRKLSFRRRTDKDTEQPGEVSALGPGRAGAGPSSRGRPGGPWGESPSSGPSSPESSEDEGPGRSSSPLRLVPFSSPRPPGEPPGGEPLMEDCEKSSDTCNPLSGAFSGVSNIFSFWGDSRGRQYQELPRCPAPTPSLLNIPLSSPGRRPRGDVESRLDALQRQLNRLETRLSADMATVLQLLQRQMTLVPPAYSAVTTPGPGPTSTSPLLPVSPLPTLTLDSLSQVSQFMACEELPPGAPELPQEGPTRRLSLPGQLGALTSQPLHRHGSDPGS

[4] = Table I, Cmax/IB20, cut-off >100 as level of concern

Compound: CCN1C[C@]2(COC)[C@H](O)C[C@H](OC)[C@@]34[C@@H]5C[C@@]6(O)[C@H](OC(=O)c7ccccc7)[C@@H]5[C@@](OC(C)=O)([C@@H]([C@H](OC)[C@H]23)[C@@H]14)[C@@H](O)[C@@H]6OC [Aconitine]
- concentration showing arrhythmia relative to the efficacious concentration [1]: arrhythmia at concentrations less than the efficacious concentration
- PPS [1, 4]: 2567
- IB20 ([1]; Table I): 0.03 µM
- IB20 ([1]; Table II): 0.03 µM
- PPS ([1]; human): 0.4
- Cmax ([2]; Table I): 0.077 µM
- Cmax ([2]; Table II): 0.077 µM

Compound: COc1cc2nc(N(C)CCCNC(=O)C3CCCO3)nc(N)c2cc1OC (centres unmarked) [Alfuzosin]
- TdP liability (TdP): free of TdP
- effect at concentrations substantially higher than employed in vivo [1]: beat rate reduction and appearance of arrhythmic beats
- Cmax ([2]; Table I): 0.056 µM
- Cmax ([2]; Table II): 0.056 µM
- QT prolongation (QT interval; in patients / in vivo): induce QT prolongation

Compound: CCCCc1oc2ccccc2c1C(=O)c1cc(I)c(OCCN(CC)CC)c(I)c1 [Amiodarone]
- TdP liability (TdP): very low risk of TdP

Compound: CC1(C)S[C@@H]2[C@H](NC(=O)[C@H](N)c3ccc(O)cc3)C(=O)N2[C@H]1C(=O)O [Amoxicillin]
- TdP liability (TdP): devoid of QT prolongation and TdP liability
- IB20 ([1]; Table I): >1,000 μM
- IB20 ([1]; Table II): >1,000,000 nM
- Cmax ([2]; Table I): 17 µM
- Cmax ([2]; Table II): 17 µM
- QT prolongation (QT interval; in patients / in vivo): devoid of QT prolongation

Compound: CC(=O)Oc1ccccc1C(=O)O [Aspirin]
- TdP liability (TdP): devoid of QT prolongation and TdP liability
- Cmax ([2]; Table I): 10 µM
- Cmax ([2]; Table II): 10 µM
- QT prolongation (QT interval; in patients / in vivo): devoid of QT prolongation

Compound: COc1ccc(CCN2CCC(Nc3nc4ccccc4n3Cc3ccc(F)cc3)CC2)cc1 [Astemizole]
- Cmax ([2]; Table I): 0.008 µM
- Cmax ([2]; Table II): 0.008 µM

Compound: C[C@H](CS)C(=O)N1CCC[C@H]1C(=O)O [Captopril]
- PPS [1, 4]: <25
- Cmax ([2]; Table I): 2.47 µM
- Cmax ([2]; Table II): 2.47 µM
- QT prolongation (QT interval; human, in vivo): devoid of QT prolongation

Compound: COc1cc(N)c(Cl)cc1C(=O)NC1CCN(CCCOc2ccc(F)cc2)CC1OC (centres unmarked) [Cisapride]
- alterations in beat patterns / arrhythmic beats [1]: Irregular beating patterns were observed
- Cmax ([2]; Table I): 0.129 µM
- Cmax ([2]; Table II): 0.129 µM

Compound: CN(CCOc1ccc(NS(C)(=O)=O)cc1)CCc1ccc(NS(C)(=O)=O)cc1 [Dofetilide]
- PPS [1, 4]: 2000
- PPS ([1]; human): 0.5
- Cmax ([2]; Table I): 0.006 µM
- Cmax ([2]; Table II): 0.006 µM

Compound: Cc1cccc(CCN2CCC(C(=O)c3ccc(NS(C)(=O)=O)cc3)CC2)n1 [E-4031]
- beat rate ([1]; iPSC-CMs, impedance): dose-dependent reduction in beat rate

Compound: CC[C@H]1OC(=O)[C@H](C)[C@@H](O[C@H]2C[C@@](C)(OC)[C@@H](O)[C@H](C)O2)[C@H](C)[C@@H](O[C@@H]2O[C@H](C)C[C@H](N(C)C)[C@H]2O)[C@](C)(O)C[C@@H](C)C(=O)[C@H](C)[C@@H](O)[C@]1(C)O [Erythromycin]
- alterations in beat patterns / arrhythmic beats [1]: Irregular beating patterns were observed
- Cmax ([2]; Table I): 34.1 µM
- Cmax ([2]; Table II): 34.1 µM

Compound: CNCCC(Oc1ccc(C(F)(F)F)cc1)c1ccccc1 (centres unmarked) [Fluoxetine]
- TdP liability (TdP): very low risk of TdP
- Cmax ([2]; Table I): 0.485 µM
- Cmax ([2]; Table II): 0.485 µM

Compound: CC(C)NCC(O)c1ccc(O)c(O)c1 (centres unmarked) [Isoproterenol]
- amplitude of impedance ([1]; iPSC-CMs): increased
- beat rate ([1]; iPSC-CMs, impedance): increased
- beat rate in MEA [3]: increased

Compound: COc1c(N2C[C@@H]3CCCN[C@@H]3C2)c(F)cc2c(=O)c(C(=O)O)cn(C3CC3)c12 [Moxifloxacin]
- hERG inhibition (hERG channel): inhibit hERG
- alterations in beat patterns / arrhythmic beats [1]: not torsadogenic
- PPS [1, 4]: <103
- PPS ([1]; human): >10
- Cmax ([2]; Table I): 10.3 µM
- Cmax ([2]; Table II): 10.3 µM
- QT prolongation (QT interval; human, in vivo): induce QT prolongation

Compound: C[C@@H]1O[C@@H](O[C@H]2C[C@@H](O)[C@]3(CO)[C@H]4[C@H](O)C[C@]5(C)[C@@H](C6=CC(=O)OC6)CC[C@]5(O)[C@@H]4CC[C@]3(O)C2)[C@H](O)[C@H](O)[C@H]1O [Ouabain]
- PPS [1, 4]: 5667
- IB20 ([1]; Table I): 0.03 µM
- IB20 ([1]; Table II): 0.03 µM
- PPS ([1]; human): 0.2
- alterations in beat patterns / arrhythmic beats ([1]; human iPSC-CMs): Irregular beating patterns were observed
- amplitude of impedance ([1]; iPSC-CMs): increased
- amplitude in MEA ([3]; for nifedipine Ca2+-peak amplitude): increased
- Cmax ([2]; Table I): 0.17 µM
- Cmax ([2]; Table II): 0.17 µM

Compound: C=C[C@H]1C[N@@]2CC[C@H]1C[C@@H]2[C@@H](O)c1ccnc2ccc(OC)cc12 [Quinidine]
- alterations in beat patterns / arrhythmic beats [1]: Irregular beating patterns were observed
- PPS [1, 4]: 2158
- PPS ([1]; human): 0.5
- Cmax ([2]; Table I): 21.6 µM
- Cmax ([2]; Table II): 21.6 µM

Compound: COc1ccccc1OCC(O)CN1CCN(CC(=O)Nc2c(C)cccc2C)CC1 (centres unmarked) [Ranolazine]
- hERG inhibition (hERG channel): inhibit hERG
- TdP liability (TdP): free of TdP
- alterations in beat patterns / arrhythmic beats [1]: not torsadogenic
- Cmax ([2]; Table I): 6.01 µM
- Cmax ([2]; Table II): 6.01 µM
- QT prolongation (QT interval; in patients / in vivo): induce QT prolongation

Compound: CS(=O)(=O)c1ccc(C2=C(c3ccccc3)C(=O)OC2)cc1 [Rofecoxib]
- TdP liability (TdP): devoid of QT prolongation and TdP liability
- Cmax ([2]; Table I): 1.02 µM
- Cmax ([2]; Table II): 1.02 µM
- QT prolongation (QT interval; in patients / in vivo): devoid of QT prolongation

Compound: CC(C)NCC(O)c1ccc(NS(C)(=O)=O)cc1 (centres unmarked) [Sotalol]
- alterations in beat patterns / arrhythmic beats [1]: Irregular beating patterns were observed
- Cmax ([2]; Table I): 14.7 µM
- Cmax ([2]; Table II): 14.7 µM

Compound: CC(C)(C)c1ccc(C(O)CCCN2CCC(C(O)(c3ccccc3)c3ccccc3)CC2)cc1 (centres unmarked) [Terfenadine]
- Cmax ([2]; Table I): 0.3 µM
- Cmax ([2]; Table II): 0.3 µM

Compound: NC1=N[C@H](O)[C@H]2[C@H]3O[C@]4(O)O[C@@H]([C@@H](O)[C@@]2(N1)[C@@H]4O)[C@]3(O)CO [Tetrodotoxin]
- beat rate [1]: reduction in beat rate

Compound: CCN(c1ccccc1)c1cc(=NC)n(C)c(C)n1.Cl [ZD7288]
- beat rate ([1]; iPSC-CMs, impedance): reduction in beat rate

Compound: Cc1ccc2c(c1)C(=O)C1(O)CCN(c3ccccc3)C1=N2 (centres unmarked) [blebbistatin]
- cardiomyocyte beating using impedance ([1]; iPSC-CMs, myosin II inhibition): no cardiomyocyte beating was observed
- electrophysiology of the cardiomyocytes detected by MEA [3]: remained unchanged
